Like-named read-outs stand apart in the source and are kept apart here.
Tests used:
[1] = IV and PO single dose pharmacokinetic studies in SD rats; format: in vivo, male Sprague-Dawley (SD) rats; details: Sprague-Dawley, rat, plasma, male SD rats, PO 2 mg/kg vs IV infusion 1 mg/kg, read-out: Rat % F
Description: IV and PO Single Dose Pharmacokinetic Studies in SD Rats:
The pharmacokinetics of selected compounds was characterized in male Sprague-Dawley (SD) rats (250-300g). In this study, two groups of naïve purebred SD rats (N=3 per group, fasted over night) received the selected compound either as an intravenous (IV) infusion (1 mg/kg over 30 minutes) via the jugular vein or by oral gavage (2 mg/kg). The intravenous (IV) dosing vehicle was 5% ethanol, 35% polyethylene glycol 400 (PEG 400) and 60% water pH 2.0. The oral dosing vehicle was 5% ethanol, 55% PEG 400 and 40% citrate buffer pH 2.2.
Serial blood samples (approximately 0.3 mL each) were collected from jugular vein or other suitable vein at specified time points. For the IV infusion group, the blood samples were collected predose and at 0.25, 0.48, 0.58, 0.75, 1.5, 3, 6, 8, 12 and 24 hours after the start of infusion. For the oral group, the blood samples were collected predose and at 0.25, 0.50, 1, 2, 4, 6, 8, 12 and 24 hours after dosing. The blood samples were collected into VacutainerγM tubes containing EDTA-K3 as the anti-coagulant and were centrifuged at approximately 4° C. to obtain plasma. The plasma samples were stored at −20° C. until analysis by LC/MS/MS.
A bioanalytical method utilizing high performance liquid chromatography coupled to tandem mass spectrometry (LC/MS/MS) was developed for analysis of the selected compound in rat plasma. Detection was performed using selected reaction monitoring (SRM); Ions representing the precursor (M+H)^+ species was selected in quadrupole 1 (Q1) and collided with argon gas in the collision cell (Q2) to generate specific product ion, which was subsequently monitored by quadrupole 3 (Q3). Standard curve and quality control samples were prepared in male rat plasma and processed in the same way as the test samples to generate quantitative data.
Pharmacokinetic parameters were generated using non-compartmental pharmacokinetic analysis (Phoenix WinNonlin, version 6.3). Values below the lower limit of quantification (LLOQ) were assigned a value of zero if predose and treated as missing thereafter. Area under the curve (AUC) was calculated using the linear trapezoidal rule. The oral bioavailability (% F) was determined by comparison of the area under the curve (AUC) of the compound and/or a metabolite generated in plasma following oral administration to that generated following intravenous administration.

[2] = system: stable HCV 2a JFH-1 Rluc replicon cells (L31 present in NS5A); assay: Renilla luciferase HCV replicon reporter assay, genotype 2a JFH-1; format: cell-based; details: Hepatitis C virus
Outline: (§1)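 First, 3-fold serial dilutions of compound went onto replicon cells, DMSO serving as no-inhibition control and ITMN-191 at >100×EC50 as positive control. Next came 72 h incubation, lysis and Renilla luciferase measurement. Finally, EC50 was calculated by non-linear regression; replicons covered genotypes 1a H77, 1b Con1, 2a JFH-1 (L31) and J6-NS5A chimera (M31).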

[3] = system: stable HCV 1a RLuc replicon cells (dicistronic genotype 1a H77 replicon); assay: Renilla luciferase HCV replicon reporter assay, genotype 1a; format: cell-based; details: Hepatitis C virus, 72 h, stable 1a H77 RLuc replicon cells
Outline: as §1

[4] = system: NS5A chimeric genotype 2a JFH-1 replicon with genotype 2b MD2b-1 strain NS5A gene (M31 present); assay: Replicon assay, genotype 2b NS5A chimera; format: cell-based, HCV; details: Hepatitis C virus
Outline: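 EC50 was fitted by non-linear regression to Renilla luciferase signal after 72 h of exposure to 3-fold serially diluted compound (10 mM DMSO stocks). Controls were DMSO (none) and ITMN-191 above 100×EC50 (full). Chimeric 2a replicons were used either stable or transiently transfected into Huh-Lunet cells.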

[5] = system: stable HCV 1b RLuc replicon cells (dicistronic genotype 1b Con1 replicon); assay: Renilla luciferase HCV replicon reporter assay, genotype 1b; format: cell-based; details: Hepatitis C virus, 72 h, stable 1b Con1 RLuc replicon cells, 72 hours; read-out: 1b
Outline: as §1

[6] = system: NS5A chimeric genotype 1b Con1 replicon with genotype 3a S52 strain NS5A gene; assay: Replicon assay, genotype 3a NS5A chimera; format: cell-based, HCV; details: Hepatitis C virus
[7] = system: NS5A chimeric genotype 1b Con1 replicon with genotype 4a ED43 strain NS5A gene; assay: Replicon assay, genotype 4a NS5A chimera; format: cell-based, HCV; details: Hepatitis C virus
[8] = system: Q30R in genotype 1a NS5A (1a Pi-Rluc replicon, Huh-7-derived cured-51 cells); assay: Replicon assay against resistance mutant 1a Q30R; format: cell-based, HCV; details: Hepatitis C virus
Description: Antiviral potency (EC50) was determined using a Renilla luciferase (RLuc)-based HCV replicon reporter assay. To perform the assay for genotype 1 and 2a JFH-1, stable HCV 1a RLuc replicon cells (harboring a dicistronic genotype 1a H77 replicon that encodes a RLuc reporter), stable HCV 1b RLuc replicon cells (harboring a dicistronic genotype 1b Con1 replicon that encodes a RLuc reporter), or stable HCV 2a JFH-1 Rluc replicon cells (harboring a dicistronic genotype 2a JFH-1 replicon that encodes a RLuc reporter; with L31 present in NS5A) were dispensed into 384-well plates for EC50 assays. To perform the assay for genotype 2a (with M31 present in NS5A) or 2b, NS5A chimeric genotype 2a JFH-1 replicons that encodes a RLuc-Neo reporter and either genotype 2a J6 strain NS5A gene or genotype 2b MD2b-1 strain NS5A gene (both with M31 present) respectively, were either transiently transfected (t) into Huh-Lunet cells or were established as stably replicating replicon cells (s) is provided. Either cells were dispensed into 384-well plates for EC50 assays. To perform the assay for genotype 3 and 4, NS5A chimeric genotype 1b Con1 replicons that encodes a Pi-RLuc reporter and either genotype 3a S52 strain NS5A gene or genotype 4a ED43 strain NS5A gene respectively, were transiently transfected (t) into Huh-Lunet cells, which were subsequently dispensed into 384-well plates. Compounds were dissolved in DMSO at a concentration of 10 mM and diluted in DMSO either manually or using an automated pipeting instrument. Serially 3-fold diluted compounds were either manually mixed with cell culture media and added to the seeded cells or directly added to the cells using an automated instrument. DMSO was used as a negative (solvent; no inhibition) control, and the protease inhibitor ITMN-191 was included at a concentration>100×EC50 as a positive control. 72 hours later, cells were lysed and Renilla luciferase activity quantified as recommended by the manufacturer (Promega-Madison, Wis.). Non-linear regression was performed to calculate EC50 values.
To determine the antiviral potency (EC50) against resistance mutants, resistance mutations, including M28T, Q30R, Q30H, Q30E, L31M, Y93C, Y93H, and Y93N in genotype 1a NS5A, Y93H and L31V/Y93H in genotype 1b NS5A, and Y93H for in genotype 3a NS5A, were introduced individually into either 1a Pi-Rluc or 1b Pi-Rluc replicons by site directed mutagenesis. Replicon RNA of each resistant mutant was transiently transfected into Huh-7-derived cured-51 cells and antiviral potency was determined on these transfected cells as described above.

[9] = system: NS5A chimeric genotype 2a JFH-1 replicon with genotype 2a J6 strain NS5A gene (M31 present); assay: Replicon assay, genotype 2a J6 NS5A chimera; format: cell-based, HCV; details: Hepatitis C virus
Outline: as §1

[10] = read-out: 2a JFH (nM), genotype 2a JFH-1 replicon (L31 in NS5A), stable cells
[11] = read-out: 2a JFH, stable 2a JFH-1 Rluc replicon cells, L31 in NS5A, activity range
[12] = 2BS, read-out: 2b (s), stably replicating replicon cells (s), activity range
[13] = read-out: 2b (s) (nM), genotype 2b MD2b-1 NS5A chimeric replicon (M31), stably replicating replicon cells (s)
[14] = read-out: 3a (s) (nM), genotype 3a NS5A chimeric replicon, stable replicon cells (s)
[15] = read-out: 3a (s), (s), activity range
[16] = read-out: 4a (s) (nM), genotype 4a NS5A chimeric replicon, stable replicon cells (s)
[17] = read-out: 4a (s), (s), activity range
[18] = read-out: 2a J6 (t) (nM), genotype 2a J6 NS5A chimeric replicon (M31), transiently transfected (t) into Huh-Lunet cells
[19] = read-out: 2a J6 (t), transiently transfected (t) into Huh-Lunet cells, activity range

| SMILES | bioavailability [1] | EC50 [2, 10] | EC50 [2, 11] | EC50 [3] | EC50 ([3]; activity range) | EC50 [4, 12] | EC50 [4, 13] | EC50 [5] | EC50 [6, 14] | EC50 [6, 15] | EC50 [7, 16] | EC50 [7, 17] | EC50 ([8]; read-out: 1a Q30R) | EC50 ([8]; read-out: 1a Q30R (nM)) | EC50 [9, 18] | EC50 [9, 19] | EC50 ([4]; read-out: 2b (t) (nM), genotype 2b MD2b-1 NS5A chimeric replicon (M31), transiently transfected (t)) | EC50 ([4]; read-out: 2b (t), transiently transfected (t) into Huh-Lunet cells, activity range) | EC50 ([6]; read-out: 3a (t) (nM), genotype 3a NS5A chimeric replicon, transiently transfected (t)) | EC50 ([6]; read-out: 3a (t), transiently transfected (t) into Huh-Lunet cells, activity range) |
| --- | --- | --- | --- | --- | --- | --- | --- | --- | --- | --- | --- | --- | --- | --- | --- | --- | --- | --- | --- | --- |
| CC[C@H]1CC[C@@H](c2nc3ccc4cc5c(cc4c3[nH]2)OCc2cc(-c3cnc([C@@H]4CC[C@H](C)N4C(=O)[C@@H](NC(=O)OC)C(C)C)[nH]3)ccc2-5)N1C(=O)[C@@H](NC(=O)OC)[C@@H](C)OC [EP, Methyl {(2S,3R)-1-[(2S,5S)-2-ethyl-5-(9-{2-[(2S,5S)-1-{(2S)-[(methoxycarbonyl)amino]-3-methylbutanoyl}-5-methylpyrrolidin-2-yl]-1H-imidazol-5-yl}-1,11-dihydroisochromeno[4′,3′:6,7]naphtho[1,2-d]imidazol-2-yl)pyrrolidin-1-yl]-3-methoxy-1l-oxobutan-2-yl}carbamate] | 17.5% | 0.013 nM | < 0.1 nM | 0.014 nM | < 0.1 nM | 0.1 to 0.999 nM | 0.213 nM | 0.024 nM | 0.115 nM | 0.1 to 0.999 nM | – | – | – | – | – | – | – | – | – | – |
| COC(=O)N[C@H](C(=O)N1[C@@H](C)CC[C@H]1c1ncc(-c2ccc3c(c2)COc2cc4c(ccc5nc([C@@H]6CC[C@H](C)N6C(=O)[C@@H](NC(=O)OC)[C@@H](C)OC(F)F)[nH]c54)cc2-3)[nH]1)C(C)C [FM, Methyl {(2S)-1-[(2S,5S)-2-(5-{2-[(2S,5S)-1-{(2S,3R)-3-(difluoromethoxy)-2-[(methoxycarbonyl)amino]butanoyl}-5-methylpyrrolidin-2-yl]-1,11-dihydroisochromeno[4′,3′:6,7]naphtho[1,2-d]imidazol-9-yl}-1H-imidazol-2-yl)-5-methylpyrrolidin-1-yl]-3-methyl-1-oxobutan-2-yl}carbamate] | 22.7% | 0.019 nM | < 0.1 nM | 0.009 nM | < 0.1 nM | 0.1 to 0.999 nM | 0.259 nM | 0.018 nM | 0.061 nM | < 0.1 nM | 0.007 nM | < 0.1 nM | – | – | – | – | – | – | – | – |
| CC[C@H](C)[C@H](NC(=O)OC)C(=O)N1[C@@H](C)CC[C@H]1c1ncc(-c2ccc3c(c2)COc2cc4c(ccc5nc([C@@H]6CC[C@H](C)N6C(=O)[C@@H](NC(=O)OC)[C@@H](C)OC)[nH]c54)cc2-3)[nH]1 [GF, Methyl {(2S,3S)-1-[(2S,5S)-2-(5-{2-[(2S,5S)-1-{(2S,3R)-3-methoxy-2-[(methoxycarbonyl)amino]butanoyl}-5-methylpyrrolidin-2-yl]-1,11-dihydroisochromeno[4′,3′:6,7]naphtho[1,2-d]imidazol-9-yl}-1H-imidazol-2-yl)-5-methylpyrrolidin-1-yl]-3-methyl-1-oxopentan-2-yl}carbamate] | 15.6% | 0.018 nM | < 0.1 nM | 0.007 nM | < 0.1 nM | 0.1 to 0.999 nM | 0.203 nM | 0.015 nM | 0.027 nM | < 0.1 nM | 0.011 nM | < 0.1 nM | – | – | – | – | – | – | – | – |
| CC[C@H]1C[C@@H](c2nc3ccc4cc5c(cc4c3[nH]2)OCc2cc(-c3cnc([C@@H]4CC[C@H](C)N4C(=O)[C@@H](NC(=O)OC)C(C)C)[nH]3)ccc2-5)N(C(=O)[C@@H](NC(=O)OC)C2CCOCC2)C1 [GV] | – | 0.008 nM | < 0.1 nM | 0.018 nM | < 0.1 nM | 0.1 to 0.999 nM | 0.112 nM | 0.027 nM | 0.042 nM | < 0.1 nM | 0.016 nM | < 0.1 nM | < 0.1 nM | 0.061 nM | 0.012 nM | < 0.1 nM | – | – | – | – |
| CC[C@H]1CC[C@@H](c2ncc(-c3ccc4c(c3)COc3cc5c(ccc6nc([C@@H]7CC[C@H](C)N7C(=O)[C@@H](NC(=O)OC)[C@@H](C)OC)[nH]c65)cc3-4)[nH]2)N1C(=O)[C@@H](NC(=O)OC)C1CCOCC1 [HY] | – | 0.015 nM | < 0.1 nM | 0.015 nM | < 0.1 nM | < 0.1 nM | 0.049 nM | 0.028 nM | 0.052 nM | < 0.1 nM | 0.017 nM | < 0.1 nM | < 0.1 nM | 0.046 nM | 0.026 nM | < 0.1 nM | 0.031 nM | < 0.1 nM | 0.055 nM | < 0.1 nM |

Reference: US10800789B2, “Antiviral compounds” (Gilead Pharmasset LLC, priority 2012, dated 2020)
